Experimental findings from patent US10815219B2, “2,4-diaminoquinazoline derivatives for inhibiting endoplasmic reticulum (ER) stress” (The Board of Regents of the University of Oklahoma, priority 2017, dated 2020) are described below.

Read-outs that look alike come from different tables or passages of the source.

In the assay the test system is INS-1 cells. The assay is described as follows: INS-1 cell survival after Tm treatment (CellTiter-Glo, intracellular ATP). The class given is cell-based, rat. Conditions: for Maximum activity: % rescue from Tm (0.1 μg/mL)-induced reduction of cell viability, Tm alone 0%, DMSO 100%. How it is done:
A structure-activity-relationship (SAR) study was thus conducted to improve the weak potency of lead compound 5a. Newly synthesized or commercially available compounds were tested for their β-cell-protective activity against ER stress in rat INS-1 β-cells. […] Maximum activity value in the tables is reported as % rescue from Tm (0.1 μg/mL)-induced reduction of cell viability. The values for Tm treatment alone and control (DMSO, without Tm) treatment are designated as 0% and 100%, respectively in all tables. EC50 values (the concentrations that reach half-maximal activity) for INS-1 cell viability were calculated with GraphPad Prism from the data of ten 2-fold serial titration points in all tables. All experiments were performed in triplicate in all tables.
INS-1 cells or βTC6 cells were seeded at 3×10^3 cells/well in a 384-well plate and treated with compounds at the indicated concentrations. After 3 d treatment, the medium was aspirated and 20 μL/well of CellTiter-Glo reagent (Promega, WI, USA) was added for the detection of intracellular ATP levels. Cell viability was measured with an EnVision multilabel plate reader (PerkinElmer, MA, USA).
Background: Cellular ATP, detected with luciferase, serves as a proxy for viable cell number.

[1] abbreviates: INS-1 cell viability, Tm 0.1 μg/mL, 72 h, ten 2-fold serial titration points, Table 1, read-out: EC50.
Where [2] appears, read: INS-1 cell viability in presence of Tm, read-out: EC50.
Where [3] appears, read: INS-1 cell viability, Tm 0.1 μg/mL, 72 h, ten 2-fold serial titration points, Table 2, read-out: EC50.
Where [4] appears, read: INS-1 cell viability, Tm 0.1 μg/mL, 72 h, ten 2-fold serial titration points, Table 3, read-out: EC50.

The term EC50 denotes the concentration needed to bring the measured effect to its halfway point. Take `OC[C@@H]1CCCN1c1nc(NCCc2ccccc2Br)c2ccccc2n1` [Compound 5l]: where the note is “72 h, Table 1”, the Maximum activity came to 39.0%. Also, the EC50 under setting [1] turned out to be 1880 ± 320 nM.
Regarding `Cc1ccc(CCNc2nc(N3CCCC3CO)nc3ccccc23)cc1` (stereo not drawn) [Compound 5e], the Maximum activity (72 h, Table 1) stood at 34.2%. Besides, the EC50 by setting is: under setting [2], approximately 500 nM; under setting [1], 660 ± 210 nM.
For the setting “72 h, Table 2”, `OCC1CCCCN1c1nc(NCCc2ccccc2Br)c2ccccc2n1` (stereo not drawn) [Compound 6m] yielded a Maximum activity of 44.2%. Further, under setting [3], the EC50 turned out to be 1410 ± 310 nM.
The matching figures for `OCC1CCCCN1c1nc(NCCc2cccc(F)c2)c2ccccc2n1` (stereo not drawn) [Compound 6g]: 57.3% and 1880 ± 180 nM.
Turning to `OCC1CCCCN1c1nc(NCc2ccc(Cl)cc2)c2ccccc2n1` (stereo not drawn) [Compound 9b], the Maximum activity (72 h, Table 3) was found to be 54.7%. Moreover, the EC50 under setting [4] was 210 ± 80 nM.
Where the note is “72 h, Table 2”, `COc1ccccc1CCNc1nc(N2CCCCC2CO)nc2ccccc12` (stereo not drawn) [Compound 6n] had a Maximum activity of 46.9%. Under setting [3], the EC50 amounted to 1600 ± 150 nM.
Under “72 h, Table 1”, `OCC1CCCN1c1nc(NCCc2ccccc2Cl)c2ccccc2n1` (stereo not drawn) [Compound 5k] came in with a Maximum activity of 50.6%. Further, the EC50 under setting [1] was 1440 ± 270 nM.
Regarding `COc1ccc(CNc2nc(N3CCCC3CO)nc3ccccc23)cc1OC` (stereo not drawn) [Compound 8d], the Maximum activity (72 h, Table 3) is recorded as 44.9%. Also, the EC50 under setting [4] amounted to 1850 ± 390 nM.
With `OCC1CCCN1c1nc(NCCc2cccc(Br)c2)c2ccccc2n1` (stereo not drawn) [Compound 5h], the Maximum activity (72 h, Table 1) came out at 53.2%. The EC50 under setting [1] turned out to be 780 ± 240 nM.
On to `OCC1CCCN1c1nc(NCCc2cccc(Cl)c2)c2ccccc2n1` (stereo not drawn) [Compound 5g], for which the Maximum activity (72 h, Table 1) worked out at 51.5%. Also, the EC50 under setting [1] was 1050 ± 180 nM.
Consider `OCC1CCCN1c1nc(NCCc2ccccc2)c2ccccc2n1` (stereo not drawn) [Compound 5a, (1-(4-(phenethylamino)quinazolin-2-yl)pyrrolidin-2-yl)methanol], for which the Maximum activity (72 h, Table 1) is 54.4%. In addition, the EC50 under setting [2] was approximately 500 nM; the EC50 (Rattus norvegicus, INS1, 72 h, INS-1 cell viability, Tm 0.1 μg/mL, 72 h, ten 2-fold serial titration points, Table 1, read-out: EC50) is 480 ± 190 nM; the EC50 (Rattus norvegicus, INS1, running text, INS-1 cell viability in presence of Tm, read-out: EC50) was determined as 480 ± 190 nM.
Consider `OCC1CCCN1c1nc(NCCc2ccc(Br)cc2)c2ccccc2n1` (stereo not drawn) [Compound 5d], for which, where the note is “72 h, Table 1”, the Maximum activity was found to be 44.1%. Further, the EC50 is, setting by setting: under setting [2], approximately 500 nM; under setting [1], 650 ± 160 nM.
Under “72 h, Table 1”, `OCC1CCCN1c1nc(NCCc2ccccc2F)c2ccccc2n1` (stereo not drawn) [Compound 5j] had a Maximum activity of 52.5%. The EC50 under setting [1] is 1700 ± 230 nM.
Consider `COc1ccccc1CCNc1nc(N2CCCC2CO)nc2ccccc12` (stereo not drawn) [Compound 5m], for which the Maximum activity (72 h, Table 1) is 56.6%. Under setting [1], the EC50 came out at 3560 ± 150 nM.
In the case of `OCC1CCCCN1c1nc(NCCc2ccc(Br)cc2)c2ccccc2n1` (stereo not drawn) [Compound 6d], for the setting “72 h, Table 2”, the Maximum activity was 52.8%. The EC50 under setting [3] came out at 340 ± 90 nM.
The like results for `Cc1ccc(CCNc2nc(N3CCCCC3CO)nc3ccccc23)cc1` (stereo not drawn) [Compound 6e] were, in that order, 33.6% and 140 ± 40 nM.
The like results for `COc1ccc(CCNc2nc(N3CCCCC3CO)nc3ccccc23)cc1` (stereo not drawn) [Compound 6f] were, in that order, 58.6% and 310 ± 120 nM.
In the case of `COc1ccc(CNc2nc(N3CCCCC3CO)nc3ccccc23)cc1OC` (stereo not drawn) [Compound 9d], for the setting “72 h, Table 3”, the Maximum activity came out at 69.4%. Further, the EC50 under setting [4] is 3640 ± 380 nM.
Under “72 h, Table 1”, `OCC1CCCN1c1nc(NCCc2ccc(Cl)cc2)c2ccccc2n1` (stereo not drawn) [Compound 5c] had a Maximum activity of 57.3%. For the same molecule, the EC50 under setting [2] is approximately 500 nM and the EC50 under setting [1] was 510 ± 90 nM.
Consider `COc1cccc(CCNc2nc(N3CCCC3CO)nc3ccccc23)c1` (stereo not drawn) [Compound 5i], for which, where the note is “72 h, Table 1”, the Maximum activity is on record as 54.9%. Moreover, the EC50 under setting [1] amounted to 1510 ± 130 nM.
As to `OCC1CCCCN1c1nc(NCCc2cccc(Cl)c2)c2ccccc2n1` (stereo not drawn) [Compound 6h], the Maximum activity (72 h, Table 2) came to 46.2%. In addition, under setting [3], the EC50 was determined as 790 ± 300 nM.
The like results for `OCC1CCCCN1c1nc(NCCc2ccccc2F)c2ccccc2n1` (stereo not drawn) [Compound 6k] were, in that order, 60.3% and 1460 ± 460 nM.
`COc1cccc(CCNc2nc(N3CCCCC3CO)nc3ccccc23)c1` (stereo not drawn) [Compound 6j] displayed a Maximum activity (72 h, Table 2) of 69.2%. In addition, the concentration giving a half-maximal response (EC50) result is, setting by setting: (INS-1 cell viability in presence of Tm) “increased”; under setting [3], 2590 ± 310 nM.
Consider `OCC1CCCCN1c1nc(NCc2ccccc2)c2ccccc2n1` (stereo not drawn) [Compound 9a], for which, where the note is “72 h, Table 3”, the Maximum activity worked out at 56.4%. Moreover, the EC50 under setting [4] was 230 ± 70 nM.
`OCC1CCCN1c1nc(NCCc2cccc(F)c2)c2ccccc2n1` (stereo not drawn) [Compound 5f] gave a Maximum activity (72 h, Table 1) of 51.3%. Under setting [1], the EC50 stood at 1150 ± 190 nM.
As to `OCC1CCCCN1c1nc(NCCc2ccccc2Cl)c2ccccc2n1` (racemic) [Compound 6l], the Maximum activity (72 h, Table 2) is 51.4%. Besides, under setting [3], the EC50 turned out to be 470 ± 450 nM.
The matching figures for `OCC1CCCCN1c1nc(NCCc2cccc(Br)c2)c2ccccc2n1` (stereo not drawn) [Compound 6i]: 51.7% and 770 ± 400 nM.
Turning to `Nc1nc(Sc2cc(-n3cccc3)c(Cl)cc2[N+](=O)[O-])n[nH]1` [RH01687, reference compound], where the note is “INS-1 cells, Tm 0.1 μg/mL, 72 h, based on dose-dependent curves”, the “concentration exhibiting the maximum protective activity” value is 30 µM.
The molecule `OCC1CCCN1c1nc(NCCc2ccc(F)cc2)c2ccccc2n1` (stereo not drawn) [Compound 5b] returned a Maximum activity (72 h, Table 1) of 56.2%. Also, the EC50 under setting [1] was found to be 2130 ± 410 nM.
In the case of `OCC1CCCCN1c1nc(NCCc2ccc(F)cc2)c2ccccc2n1` (stereo not drawn) [Compound 6b], the “EC50 improvement over 2-(hydroxymethyl)pyrrolidin-1-yl counterpart” value (6-series versus 5-series counterpart) is on record as approximately 7 fold. In addition, the Maximum activity (72 h, Table 2) amounted to 47.5%. The EC50 under setting [3] is 310 ± 260 nM.
Take `OCC1CCCCN1c1nc(NCCc2ccccc2)c2ccccc2n1` (stereo not drawn) [Compound 6a]: under “72 h, Table 2”, the Maximum activity is on record as 55.7%. For the same molecule, under setting [3], the EC50 came out at 360 ± 210 nM.
The like results for `OCC1CCCCN1c1nc(NCCc2ccc(Cl)cc2)c2ccccc2n1` (stereo not drawn) [Compound 6c] were, in that order, 57.6% and 170 ± 50 nM.
For the setting “72 h, Table 3”, `COc1ccc(CNc2nc(N3CCCC3CO)nc3ccccc23)cc1` (stereo not drawn) [Compound 8c] gave a Maximum activity of 57.2%. Moreover, the EC50 under setting [4] worked out at 4050 ± 130 nM.
